According to patent US8912169B2, “Beta-lactamase inhibitors” (VenatoRx Pharmaceuticals, Inc., priority 2012, dated 2014):

Legend:
Type in all cases: biochemical
SHV-5 = target: T1, SHV-5 (Klebsiella pneumoniae, UniProt P0A3M1); assay: β-lactamase enzyme inhibition, SHV-5
T1 construct: made in house; host or cells: E. coli BL21(DE3)
Procedure, shortened: (§1)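 Native untagged β-lactamases expressed in E. coli BL21(DE3) and purified, then pre-incubated with inhibitor 15 min at 37 °C. Hydrolysis was followed by absorbance: 100 μM nitrocefin at 486 nm for p99 AmpC and OXA-1; imipenem at 300 nm for KPC-2; cefotaxime at 260 nm for SHV-5. IC50 from initial-rate inhibition versus uninhibited controls.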

KPC-2 = target: T2, KPC-2 (Klebsiella pneumoniae, UniProt Q9F663); assay: β-lactamase enzyme inhibition, KPC-2; conditions: substrate imipenem, 300 nm; read-out: Class A KPC-2 IC50
T2 construct: made in house; host or cells: E. coli BL21(DE3)
Procedure, shortened: as §1

VIM-2 = target: T3, VIM-2 (Escherichia coli, UniProt Q5U7L7); assay: β-lactamase enzyme inhibition, VIM-2; conditions: substrate Nitrocefin 100 μM, 486 nm; read-out: Class B VIM-2 IC50
T3 construct: made in house; host or cells: E. coli BL21(DE3)
Procedure, shortened: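 Purified VIM-2 (Q sepharose, 50 mM Hepes pH 7.5, >90% purity) preincubated with inhibitor 15 min at 37° C, then nitrocefin added at 100 μM final. Hydrolysis followed at 486 nm for 10 min; IC50 from initial rates versus inhibitor-free control wells.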

p99 AmpC = target: T4, p99 AmpC (Enterobacter cloacae, UniProt P05364); assay: β-lactamase enzyme inhibition, p99 AmpC
T4 construct: made in house; host or cells: E. coli BL21(DE3)
Procedure, shortened: as §1

OXA-1 = target: T5, OXA-1 (Escherichia coli, UniProt P13661); assay: β-lactamase enzyme inhibition, OXA-1; conditions: substrate Nitrocefin 100 μM, 486 nm; read-out: Class D OXA-1 IC50
T5 construct: made in house; host or cells: E. coli BL21(DE3)
Procedure, shortened: as §1

In the case of CN(C)CCN[C@H]1CC[C@H](CC(=O)N[C@H]2Cc3cccc(C(=O)O)c3OB2O)CC1 [Example 79, (R)-3-(2-(trans-4-(2-(dimethylamino)ethylamino)cyclohexyl)acetamido)-2-hydroxy-3,4-dihydro-2H-benzo[e][1,2]oxaborinine-8-carboxylic acid], the IC50 (SHV-5) is reported as < 0.1 µM, the IC50 (KPC-2) is reported as < 0.1 µM and the IC50 (VIM-2) is reported as < 0.1 µM. For the same compound, the IC50 (p99 AmpC) was < 0.1 µM and the IC50 (OXA-1) was < 0.1 µM.
With C[C@H](N)CN[C@H]1CC[C@H](CC(=O)N[C@H]2Cc3cccc(C(=O)O)c3OB2O)CC1 [Example 53, (R)-3-(2-(trans-4-((S)-2-aminopropylamino)cyclohexyl)acetamido)-2-hydroxy-3,4-dihydro-2H-benzo[e][1,2]oxaborinine-8-carboxylic acid] the IC50 (SHV-5) was < 0.1 µM, the IC50 (KPC-2) was < 0.1 µM and the IC50 (VIM-2) was < 0.1 µM. The IC50 (p99 AmpC) was < 0.1 µM and the IC50 (OXA-1) was < 0.1 µM.
In the case of NC1CCC(O)(CC(=O)N[C@H]2Cc3cccc(C(=O)O)c3OB2O)CC1 (stereo partly shown) [Example 44, 3-[2-(4-Amino-1-hydroxy-cyclohexyl)-acetylamino]-2-hydroxy-3,4-dihydro-2H-benzo[e][1,2]oxaborinine-8-carboxylic acid], the IC50 (SHV-5) is reported as 0.1 to 1 µM, the IC50 (KPC-2) is reported as 0.1 to 1 µM and the IC50 (VIM-2) is reported as 1 to 10 µM. The IC50 (p99 AmpC) was 0.1 to 1 µM and the IC50 (OXA-1) was 0.1 to 1 µM.
For CN1CCN([C@H]2CC[C@H](CC(=O)N[C@H]3Cc4cccc(C(=O)O)c4OB3O)CC2)C1=N [Example 52, (R)-2-hydroxy-3-(2-(trans-4-(2-imino-3-methylimidazolidin-1-yl)cyclohexyl)acetamido)-3,4-dihydro-2H-benzo[e][1,2]oxaborinine-8-carboxylic acid], the IC50 (SHV-5) was < 0.1 µM, the IC50 (KPC-2) was < 0.1 µM and the IC50 (VIM-2) was 10 to 100 µM. The IC50 (p99 AmpC) was < 0.1 µM and the IC50 (OXA-1) was < 0.1 µM.
In the case of N[C@H]1CC[C@H](NCC(=O)N[C@H]2Cc3cccc(C(=O)O)c3OB2O)CC1 [Example 45, 3-[2-(4-Amino-cyclohexylamino)-acetylamino]-2-hydroxy-3,4-dihydro-2H-benzo[e][1,2]oxaborinine-8-carboxylic acid], the IC50 (SHV-5) is reported as < 0.1 µM, the IC50 (KPC-2) is reported as < 0.1 µM and the IC50 (VIM-2) is reported as 1 to 10 µM. For the same compound, the IC50 (p99 AmpC) was < 0.1 µM and the IC50 (OXA-1) was 0.1 to 1 µM.
With O=C(C[C@H]1CC[C@H](NCCNCC2CC2)CC1)N[C@H]1Cc2cccc(C(=O)O)c2OB1O [Example 74, (R)-3-(2-(trans-4-(2-(cyclopropylmethylamino)ethylamino)cyclohexyl)acetamido)-2-hydroxy-3,4-dihydro-2H-benzo[e][1,2]oxaborinine-8-carboxylic acid] the IC50 (SHV-5) was < 0.1 µM, the IC50 (KPC-2) was < 0.1 µM and the IC50 (VIM-2) was < 0.1 µM. The IC50 (p99 AmpC) was < 0.1 µM and the IC50 (OXA-1) was < 0.1 µM.
For CN(C)CCN(C)[C@H]1CC[C@H](CC(=O)N[C@H]2Cc3cccc(C(=O)O)c3OB2O)CC1 [Example 23, (R)-3-(2-(trans-4-((2-(dimethylamino)ethyl)(methyl)amino)cyclohexyl)acetamido)-2-hydroxy-3,4-dihydro-2H-benzo[e][1,2]oxaborinine-8-carboxylic acid], the IC50 (SHV-5) was < 0.1 µM, the IC50 (KPC-2) was < 0.1 µM and the IC50 (VIM-2) was 0.1 to 1 µM. For the same compound, the IC50 (p99 AmpC) was < 0.1 µM and the IC50 (OXA-1) was 0.1 to 1 µM.
With O=C(C[C@H]1CC[C@H](NCc2ccccn2)CC1)N[C@H]1Cc2cccc(C(=O)O)c2OB1O [Example 32, (R)-2-hydroxy-3-(2-(trans-4-(pyridin-2-ylmethylamino)cyclohexyl)acetamido)-3,4-dihydro-2H-benzo[e][1,2]oxaborinine-8-carboxylic acid] the IC50 (SHV-5) was < 0.1 µM, the IC50 (KPC-2) was < 0.1 µM and the IC50 (VIM-2) was 0.1 to 1 µM. The IC50 (p99 AmpC) was < 0.1 µM and the IC50 (OXA-1) was < 0.1 µM.
With O=C(C[C@H]1CC[C@H](NCc2cnc[nH]2)CC1)N[C@H]1Cc2cccc(C(=O)O)c2OB1O [Example 70, (R)-3-(2-(trans-4-((1H-imidazol-5-yl)methylamino)cyclohexyl)acetamido)-2-hydroxy-3,4-dihydro-2H-benzo[e][1,2]oxaborinine-8-carboxylic acid] the IC50 (SHV-5) was < 0.1 µM, the IC50 (KPC-2) was < 0.1 µM and the IC50 (VIM-2) was 0.1 to 1 µM. For the same compound, the IC50 (p99 AmpC) was < 0.1 µM and the IC50 (OXA-1) was < 0.1 µM.
O=C(C[C@H]1CC[C@@H](N2CCNCC2)CC1)N[C@H]1Cc2cccc(C(=O)O)c2OB1O [Example 17, (R)-2-hydroxy-3-(2-(cis-4-(piperazin-1-yl)cyclohexyl)acetamido)-3,4-dihydro-2H-benzo[e][1,2]oxaborinine-8-carboxylic acid] was tested, and the IC50 (SHV-5) was 0.1 to 1 µM, the IC50 (KPC-2) was < 0.1 µM and the IC50 (VIM-2) was 1 to 10 µM. For the same compound, the IC50 (p99 AmpC) was < 0.1 µM and the IC50 (OXA-1) was 0.1 to 1 µM.
With C[C@H](N)CNCCN[C@H]1CC[C@H](CC(=O)N[C@H]2Cc3cccc(C(=O)O)c3OB2O)CC1 [Example 62, (R)-3-(2-(trans-4-(2-((S)-2-aminopropylamino)ethylamino)cyclohexyl)acetamido)-2-hydroxy-3,4-dihydro-2H-benzo[e][1,2]oxaborinine-8-carboxylic acid] the IC50 (SHV-5) was < 0.1 µM, the IC50 (KPC-2) was < 0.1 µM and the IC50 (VIM-2) was < 0.1 µM. The IC50 (p99 AmpC) was < 0.1 µM and the IC50 (OXA-1) was < 0.1 µM.
